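Where inhibition never reached the appropriate level, the endpoint shown equals the highest concentration tested. Otherwise, values were interpolated linearly from a five-concentration, 48-hour dose response in 96-well plates. TGI marks complete inhibition of growth.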
What was measured:
Experiment in all cases: inhibition of tumour cell growth, NCI panel, 48 h
SNB-78 CNS = tested on: SNB-78 CNS
HL-60(TB) leukemia = tested on: HL-60(TB) leukemia
DLD-1 colon = tested on: DLD-1 colon
SNB-19 CNS = tested on: SNB-19 CNS
SW-620 colon = tested on: SW-620 colon
HCT-116 colon = tested on: HCT-116 colon
MOLT-4 leukemia = tested on: MOLT-4 leukemia
LOX IMVI melanoma = tested on: LOX IMVI melanoma
OVCAR-4 ovarian = tested on: OVCAR-4 ovarian
A498 renal = tested on: A498 renal
NCI-H460 lung = tested on: NCI-H460 lung
UACC-62 melanoma = tested on: UACC-62 melanoma
HOP-18 NSCLC = tested on: HOP-18 NSCLC
SF-268 CNS = tested on: SF-268 CNS
KM20L2 colon = tested on: KM20L2 colon
M14 melanoma = tested on: M14 melanoma
HT29 colon = tested on: HT29 colon
UO-31 renal = tested on: UO-31 renal
M19-MEL melanoma = tested on: M19-MEL melanoma
KM12 colon = tested on: KM12 colon
HCC-2998 colon = tested on: HCC-2998 colon
IGROV1 ovarian = tested on: IGROV1 ovarian
CCRF-CEM leukemia = tested on: CCRF-CEM leukemia
SNB-75 CNS = tested on: SNB-75 CNS
LXFL 529 NSCLC = tested on: LXFL 529 NSCLC
SN12C renal = tested on: SN12C renal
NCI-H522 lung = tested on: NCI-H522 lung
ACHN renal = tested on: ACHN renal
RPMI-8226 leukemia = tested on: RPMI-8226 leukemia
SR leukemia = tested on: SR leukemia
A549 NSCLC = tested on: A549 NSCLC
SF-295 CNS = tested on: SF-295 CNS
U251 CNS = tested on: U251 CNS
XF 498 CNS = tested on: XF 498 CNS
NCI-H226 lung = tested on: NCI-H226 lung
SK-MEL-2 melanoma = tested on: SK-MEL-2 melanoma
OVCAR-5 ovarian = tested on: OVCAR-5 ovarian
OVCAR-3 ovarian = tested on: OVCAR-3 ovarian
HOP-62 NSCLC = tested on: HOP-62 NSCLC
OVCAR-8 ovarian = tested on: OVCAR-8 ovarian
HCT-15 colon = tested on: HCT-15 colon
SK-MEL-28 melanoma = tested on: SK-MEL-28 melanoma
UACC-257 melanoma = tested on: UACC-257 melanoma
MALME-3M melanoma = tested on: MALME-3M melanoma
DMS 114 small cell lung = tested on: DMS 114 small cell lung
CAKI-1 renal = tested on: CAKI-1 renal
COLO 205 colon = tested on: COLO 205 colon
SK-OV-3 ovarian = tested on: SK-OV-3 ovarian
SF-539 CNS = tested on: SF-539 CNS
EKVX NSCLC = tested on: EKVX NSCLC
NCI-H23 lung = tested on: NCI-H23 lung
SK-MEL-5 melanoma = tested on: SK-MEL-5 melanoma
DMS 273 small cell lung = tested on: DMS 273 small cell lung
K-562 leukemia = tested on: K-562 leukemia
HOP-92 NSCLC = tested on: HOP-92 NSCLC
TK-10 renal = tested on: TK-10 renal
RXF 393 renal = tested on: RXF 393 renal
786-0 renal = tested on: 786-0 renal

For CNC(=O)N(C)COC, the TGI (SNB-78 CNS) was > 100 µM, the TGI (HL-60(TB) leukemia) was > 100 µM and the TGI (DLD-1 colon) was > 100 µM. The TGI (SNB-19 CNS) was > 100 µM, the TGI (SW-620 colon) was > 100 µM and the TGI (HCT-116 colon) was > 100 µM. For the same compound, the TGI (MOLT-4 leukemia) was > 100 µM, the TGI (LOX IMVI melanoma) was > 100 µM and the TGI (OVCAR-4 ovarian) was > 100 µM. For the same compound, the TGI (A498 renal) was > 100 µM, the TGI (NCI-H460 lung) was > 100 µM and the TGI (UACC-62 melanoma) was > 100 µM. For the same compound, the TGI (HOP-18 NSCLC) was > 100 µM, the TGI (SF-268 CNS) was > 100 µM and the TGI (KM20L2 colon) was > 100 µM. The TGI (M14 melanoma) was > 100 µM, the TGI (HT29 colon) was > 100 µM and the TGI (UO-31 renal) was > 100 µM. For the same compound, the TGI (M19-MEL melanoma) was > 100 µM, the TGI (KM12 colon) was > 100 µM and the TGI (HCC-2998 colon) was > 100 µM. The TGI (IGROV1 ovarian) was > 100 µM, the TGI (CCRF-CEM leukemia) was > 100 µM and the TGI (SNB-75 CNS) was > 100 µM. For the same compound, the TGI (LXFL 529 NSCLC) was > 100 µM, the TGI (SN12C renal) was > 100 µM and the TGI (NCI-H522 lung) was > 100 µM. The TGI (ACHN renal) was > 100 µM, the TGI (RPMI-8226 leukemia) was > 100 µM and the TGI (SR leukemia) was > 100 µM. For the same compound, the TGI (A549 NSCLC) was > 100 µM, the TGI (SF-295 CNS) was > 100 µM and the TGI (U251 CNS) was > 100 µM. For the same compound, the TGI (XF 498 CNS) was > 100 µM, the TGI (NCI-H226 lung) was > 100 µM and the TGI (SK-MEL-2 melanoma) was > 100 µM. For the same compound, the TGI (OVCAR-5 ovarian) was > 100 µM, the TGI (OVCAR-3 ovarian) was > 100 µM and the TGI (HOP-62 NSCLC) was > 100 µM. For the same compound, the TGI (OVCAR-8 ovarian) was > 100 µM, the TGI (HCT-15 colon) was > 100 µM and the TGI (SK-MEL-28 melanoma) was > 100 µM. The TGI (UACC-257 melanoma) was > 100 µM, the TGI (MALME-3M melanoma) was > 100 µM and the TGI (DMS 114 small cell lung) was > 100 µM. For the same compound, the TGI (CAKI-1 renal) was > 100 µM, the TGI (COLO 205 colon) was > 100 µM and the TGI (SK-OV-3 ovarian) was > 100 µM. The TGI (SF-539 CNS) was > 100 µM and the TGI (EKVX NSCLC) was > 100 µM.

For S=c1cc(S)sc2c1c(=S)sc1nc3ccccn3c(=S)c12, the TGI (SNB-78 CNS) was > 100 µM, the TGI (NCI-H23 lung) was > 100 µM and the TGI (HL-60(TB) leukemia) was 97.3 µM. For the same compound, the TGI (DLD-1 colon) was > 100 µM, the TGI (SNB-19 CNS) was > 100 µM and the TGI (SW-620 colon) was > 100 µM. The TGI (HCT-116 colon) was > 100 µM, the TGI (MOLT-4 leukemia) was > 100 µM and the TGI (LOX IMVI melanoma) was > 100 µM. For the same compound, the TGI (OVCAR-4 ovarian) was > 100 µM, the TGI (A498 renal) was > 100 µM and the TGI (NCI-H460 lung) was 92.1 µM. The TGI (UACC-62 melanoma) was > 100 µM, the TGI (SK-MEL-5 melanoma) was > 100 µM and the TGI (HOP-18 NSCLC) was > 100 µM. For the same compound, the TGI (DMS 273 small cell lung) was > 100 µM, the TGI (KM20L2 colon) was > 100 µM and the TGI (M14 melanoma) was > 100 µM. For the same compound, the TGI (HT29 colon) was > 100 µM, the TGI (UO-31 renal) was > 100 µM and the TGI (M19-MEL melanoma) was > 100 µM. For the same compound, the TGI (KM12 colon) was > 100 µM, the TGI (HCC-2998 colon) was > 100 µM and the TGI (CCRF-CEM leukemia) was > 100 µM. The TGI (K-562 leukemia) was > 100 µM, the TGI (SNB-75 CNS) was > 100 µM and the TGI (HOP-92 NSCLC) was > 100 µM. The TGI (TK-10 renal) was > 100 µM, the TGI (SN12C renal) was > 100 µM and the TGI (ACHN renal) was > 100 µM. The TGI (RPMI-8226 leukemia) was > 100 µM, the TGI (SR leukemia) was > 100 µM and the TGI (A549 NSCLC) was > 100 µM. For the same compound, the TGI (SF-295 CNS) was > 100 µM, the TGI (U251 CNS) was > 100 µM and the TGI (XF 498 CNS) was > 100 µM. The TGI (NCI-H226 lung) was > 100 µM, the TGI (SK-MEL-2 melanoma) was > 100 µM and the TGI (OVCAR-5 ovarian) was > 100 µM. For the same compound, the TGI (OVCAR-3 ovarian) was > 100 µM, the TGI (OVCAR-8 ovarian) was > 100 µM and the TGI (HCT-15 colon) was > 100 µM. For the same compound, the TGI (RXF 393 renal) was > 100 µM, the TGI (786-0 renal) was > 100 µM and the TGI (SK-MEL-28 melanoma) was > 100 µM. For the same compound, the TGI (MALME-3M melanoma) was > 100 µM, the TGI (DMS 114 small cell lung) was 40.1 µM and the TGI (CAKI-1 renal) was > 100 µM. For the same compound, the TGI (SF-539 CNS) was > 100 µM and the TGI (EKVX NSCLC) was > 100 µM.

Reference: PubChem BioAssay (NCI)
